The compounds below were run on THP-1 (assay: CellTiter-Glo cell proliferation inhibition, THP-1). Details: Homo sapiens; THP-1 (leukemia cell line), 72 hours; read-out: Example IC50 (µM) THP-1.
Format: cell-based
Excerpt: This experiment used the CellTiter-Glo® Luminescent Cell Viability Assay kit from Promega to evaluate the inhibitory activity of the disclosed compounds on the proliferation of the following cell lines: 4T1 (mouse breast cancer cell line), A20 (mouse B-cell lymphoma cell line), A2780 (human ovarian cancer cell line), AsPC-1 (pancreatic cancer cell line), B16F10 (mouse melanoma cell line), BT549 (human breast cancer cell line), CT26 (mouse colon cancer cell line), EMT6 (mouse breast cancer cell line), HCT116 (colorectal cancer cell line), Jurket (acute leukemia cell line), KP-4 (pancreatic cancer cell line), LL/2 (mouse lung cancer cell line), MCF7 (breast cancer cell line), […] NCI-H358 (lung cancer cell line), NCI-H727 (gastric cancer cell line), NCI-1944 (lung cancer cell line), Pan 04.03 (pancreatic cancer cell line), SK-BR-3 (breast cancer cell line), THP-1 (leukemia cell line), TOV21G (ovarian cancer cell line), U87MG (glioblastoma cell line), and UM-UC-a (bladder cancer cell line).
All cell lines were purchased from Nanjing Kebai Biotechnology Co., Ltd. The following materials were also used in the experiment: RPMI-1640 media (HyClone, catalog number #SH30022.01), McCoy's 5A media (Thermo Fisher, catalog number #16600-082), MCDB 105 media (Sigma, catalog number #117-500), Medium 199 (Thermo Fisher, catalog number #11150-059), MEM media (Thermo Fisher, catalog number #11095-080), DMEM media (HyClone, catalog number #SH30027.01), fetal bovine serum (FBS) (ExCell, catalog number # M4530), Sodium Pyruvate (100Mm) (Thermo Fisher, catalog number #11360-070), and MEM NEAA (100X) (Thermo Fisher). […]
Cells were cultured according to the instructions provided by the cell supplier (Nanjing Kebai Biotechnology Co., Ltd.). […] Suspension or adherent cells were collected, and cell viability was determined using the trypan blue exclusion method, ensuring that cell viability was above 90%. […]
Compound `O=C(Nc1ccc(-c2csc(CO)c2)cc1)C(=O)Nc1ccc(-c2cc3cc(F)c(-c4nnn[nH]4)cc3n2C2CCC2)cc1` [Example 1] has an IC50 of 0.086 µM. Work on `CC1(n2c(-c3ccc(NC(=O)C(=O)Nc4ccc(N5CCC6(CCOC6)CC5)cc4)cc3)cc3cc(F)c(-c4nnn[nH]4)cc32)CCC1` [Example 68] yielded an IC50 of 0.063 µM. `O=C(Nc1ccc(-c2cc3cc(F)c(-c4nnn[nH]4)cc3n2C2CCC2)cc1)C(=O)Nc1ccc(N2CCC3(CCC(O)C3)CC2)cc1` (stereo not drawn) [Example 100] was tested, and the IC50 was 0.07 µM.

— EP4741383A1, “COMPOUND AND USE THEREOF AS ANTI-CANCER DRUG” (Tyligand Bioscience (Shanghai) Limited, priority 2023, dated 2025)
